A value given as a limit tells only on which side of the number the result lay.

The IC50 is the midpoint of a concentration-inhibition curve.

For experiment [1], the target named is wild-type EGFR kinase (Homo sapiens (Human), UniProt P00533). Briefly: Wild type EGFR kinase inhibition test (z-lyte). It counts as biochemical. As to conditions: wild-type EGFR kinase Invitrogen PV3872, Tyr04 substrate, read-out: EGFR WT IC50. From the text:
All the following reagents used in z-lyte test are commercially available from Invitrogen.
The calculation method for the inhibition ratio (referring to the instruction of PV3363, Invitrogen) was as follows: ER=Coumarin Emission (450 nm)/Fluorescein Emission (520 nm) 1. Phosphorylation ratio=(1−((ER×C3520 nm−C3450 nm)/((C1450 nm−C3450 nm)+ER×(C3520 nm−C1520 nm))))×100% 2. Inhibition ratio (IR)=(1-phosphorylation ratio of the test compound)/(phosphorylation ratio of C2))×100% 3.
The half-inhibitory concentration IC50 was calculated by fitting with XLFIT 5.0 software (IDBS, UK).

The target of experiment [2] is BTK WT (Homo sapiens (Human), UniProt Q06187). Briefly: Lantha Screening Kinase Reaction Assay. It counts as biochemical. Conditions: for IC50: TR-FRET LanthaScreen, kinase Invitrogen PV3363, 60 min at 25° C.; for inhibitory activity against enzyme (BTK WT), in words: comment on table 1, G-12 and G-17 compared with G-2. The procedure:
The compound was predissolved in 100% DMSO.10 mM drug stock solution was obtained by dissolution at room temperature and then gradiently diluted with 8 vol % DMSO solution to a final concentration of 10-0.005 μM. 2.5 μl of a solution of substance to be tested and 2.5 μl of kinase (Invitrogen PV3363) diluted with the reaction buffer were added into each well of 384-well plate (Corning 3676), and then the mixture of Fluososcei-PolyGT (Invitrogen PV3610) substrate and ATP (Invitrogen PV3227) diluted with 5 μl of the reaction buffer were added to initiate the reaction. Among the wells, the kinase in the blank well was replaced with a reaction buffer and the kinase well (Enzyme) was not added with any drug. […] The plates were read on a VictorX5 fluorescent plate reader (PerkinElmer) and the light absorption at an excitation wavelength of 340 nm and emission wavelengths of 500 nm and 520 nm was measured.
2. The half-inhibitory concentration IC50 was calculated by fitting with XLFIT 5.0 software (IDBS, UK).
(TR-FRET usually uses a lanthanide donor and a delayed reading to cut background.)

Experiment [3] addresses βBTK Y223 (Ramos cells) (Homo sapiens (Human), UniProt Q06187). Kind of experiment: HTRF method for detecting intracellular βBTK Y223 phosphorylation. It counts as cell-based. Conditions: 1 hour compound incubation, sodium pervanadate stimulation. As to the method:
The compound was predissolved in 100% DMSO. 10 mM drug stock solution was obtained by dissolution at room temperature and then gradiently diluted with 5 vol % DMSO solution to a final concentration of 3-0.0014 μM. Ramos cells were seeded into a 96-well plate at a density of 4×10^5/well with 45 μl of 1640 medium containing 10% (V/V) FBS per well, and 5 μl of diluted solution of substance to be tested was added to each well. Incubation was performed for 1 hour at 37° C., 5% (V/V) CO2. 10 μl of sodium pervanadate dilution (diluted with 1640 without serum) was added, and 10 μl of serum-free medium was added to the negative control wells. Incubation was performed at 25° C. for 30 minutes on a shaker. 20 μl of lysate (4× lysate: blocked mother liquor is equal to 25:1) was added to each well and incubated for 30 minutes at 25° C. on a shaker. The 96-well plate was shaken on an oscillator at 800 rpm for 1 minute. 16 μl of cell lysate was added to a 384-well plate (Greiner 784075), and 4 μl of pre-mixed antibody solution (Phospho-BTK d2 antibody and Phospho-BTK Cryptate antibody diluted 20-fold with the test solution) was added. Incubation was performed at 25° C. overnight on a shaker. The plate was read on a VictorX5 fluorescent plate reader (PerkinElmer) and the light absorption at an excitation wavelength of 317 nm and emission wavelengths of 500 nm and 520 nm was measured (referring to the instruction of 63ADK017PEH, Cisbio). The half-inhibitory concentration IC50 was calculated by fitting with XLFIT 5.0 software (IDBS, UK).

Chain of βBTK Y223 (Ramos cells) (Q06187 whole entry): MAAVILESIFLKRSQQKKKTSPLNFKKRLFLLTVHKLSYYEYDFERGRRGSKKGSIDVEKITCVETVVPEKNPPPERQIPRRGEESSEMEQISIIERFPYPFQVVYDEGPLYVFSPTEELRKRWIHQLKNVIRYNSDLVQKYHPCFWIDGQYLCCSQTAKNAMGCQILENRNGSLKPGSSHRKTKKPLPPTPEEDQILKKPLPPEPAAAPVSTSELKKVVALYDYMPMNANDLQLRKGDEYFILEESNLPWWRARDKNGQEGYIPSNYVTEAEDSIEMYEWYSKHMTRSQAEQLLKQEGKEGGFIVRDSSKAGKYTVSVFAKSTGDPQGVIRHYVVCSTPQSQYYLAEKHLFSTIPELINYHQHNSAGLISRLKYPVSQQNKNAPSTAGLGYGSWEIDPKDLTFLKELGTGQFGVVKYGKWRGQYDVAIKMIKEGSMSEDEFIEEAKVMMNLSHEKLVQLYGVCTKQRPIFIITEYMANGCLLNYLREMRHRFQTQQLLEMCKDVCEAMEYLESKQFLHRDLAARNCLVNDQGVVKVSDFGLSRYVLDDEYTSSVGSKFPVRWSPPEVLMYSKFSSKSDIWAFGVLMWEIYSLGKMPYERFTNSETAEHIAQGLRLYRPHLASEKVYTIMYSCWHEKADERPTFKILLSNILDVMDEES
Chain of BTK WT (Q06187 whole entry): as above
Chain of wild-type EGFR kinase (P00533 25-1210): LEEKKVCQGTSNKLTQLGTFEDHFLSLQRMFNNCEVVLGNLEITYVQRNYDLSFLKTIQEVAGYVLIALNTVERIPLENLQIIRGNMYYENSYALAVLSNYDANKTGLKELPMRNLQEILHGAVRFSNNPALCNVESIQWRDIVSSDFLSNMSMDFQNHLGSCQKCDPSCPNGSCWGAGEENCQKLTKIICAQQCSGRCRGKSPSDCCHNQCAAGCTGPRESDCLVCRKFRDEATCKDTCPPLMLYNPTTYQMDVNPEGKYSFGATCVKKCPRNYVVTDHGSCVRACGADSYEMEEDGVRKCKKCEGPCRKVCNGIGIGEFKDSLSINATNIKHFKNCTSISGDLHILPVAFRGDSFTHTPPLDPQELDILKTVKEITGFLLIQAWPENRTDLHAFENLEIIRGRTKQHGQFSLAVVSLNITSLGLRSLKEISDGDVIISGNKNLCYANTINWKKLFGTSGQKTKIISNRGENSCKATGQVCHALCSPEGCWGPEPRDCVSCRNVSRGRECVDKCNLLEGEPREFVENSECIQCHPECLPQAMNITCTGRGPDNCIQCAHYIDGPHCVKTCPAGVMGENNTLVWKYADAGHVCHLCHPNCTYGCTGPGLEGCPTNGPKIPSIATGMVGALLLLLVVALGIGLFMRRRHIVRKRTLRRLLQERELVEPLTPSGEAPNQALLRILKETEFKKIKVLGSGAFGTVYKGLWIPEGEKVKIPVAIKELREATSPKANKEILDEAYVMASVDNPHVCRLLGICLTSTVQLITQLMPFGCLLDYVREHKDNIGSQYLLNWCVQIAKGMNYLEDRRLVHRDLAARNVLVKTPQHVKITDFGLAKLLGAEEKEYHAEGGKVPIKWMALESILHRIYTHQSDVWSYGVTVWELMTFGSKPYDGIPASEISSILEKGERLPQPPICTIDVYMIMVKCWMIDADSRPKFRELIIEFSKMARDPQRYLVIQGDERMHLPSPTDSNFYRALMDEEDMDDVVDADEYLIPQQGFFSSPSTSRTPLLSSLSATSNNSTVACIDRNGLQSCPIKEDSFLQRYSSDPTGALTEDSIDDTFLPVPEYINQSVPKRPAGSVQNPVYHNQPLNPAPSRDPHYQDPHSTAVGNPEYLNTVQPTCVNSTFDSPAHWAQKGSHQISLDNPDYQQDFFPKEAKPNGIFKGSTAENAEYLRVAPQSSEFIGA

`C=CC(=O)Nc1cccc(Nc2nc(Nc3ccc(OCCOC)cc3)c3c(c2F)C(C)NC3=O)c1` (stereo not drawn) [Compound G-1, N-(3-((7-fluoro-4-((4-(2-methoxyethoxy)phenyl)amino)-1-methyl-3-oxo-2,3-dihydro-1H-pyrrolo[3,4-C]pyridin-6-yl)amino)phenyl)acrylamide]: the figures for the IC50 in experiment [1] and in experiment [2] were 9.27 µM and 0.141 µM, respectively.
With `C=CC(=O)Nc1cccc(Nc2nc3c(c(Nc4ccc(OCCOC)cc4)n2)C(=O)NC3)c1` [Compound G-2, N-(3-(4-(4-(2-methoxyethoxy)phenylamino)-5-oxo-6.7-dihydro-5H-pyrrolo[3,4-d]pyrimidin-2-ylamino)phenyl)acrylamide], the IC50 in experiment [3] came out at 0.043 µM; in experiment [1], 4.69 µM; in experiment [2], 0.025 µM.
For `C=CC(=O)Nc1cccc(Nc2nc(Nc3ccc(OCCOC)cc3)c3c(c2F)CNC3=O)c1` [Compound G-3, N-(3-(7-fluoro-4-(4-(2-methoxyethoxy)phenylamino)-3-oxo-2,3-dihydro-1H-pyrrolo[3,4-c]pyridin-6-ylamino)phenyl)acrylamide], the results for the IC50 in experiment [3], in experiment [1] and in experiment [2] were 0.106 µM, greater than 10 µM and 0.058 µM, respectively.
Consider `C=CC(=O)Nc1cccc(Nc2nc(Nc3ccc(N4CCN(CC(C)O)CC4)cc3)c3c(c2F)CNC3=O)c1` (stereo not drawn) [Compound G-4, N-(3-(7-fluoro-4-(4-(4-(2-hydroxypropyl)piperazin-1-yl)phenylamino)-3-oxo-2,3-dihydro-1H-pyrrolo[3,4c]pyridin-6-ylamino)phenyl)acrylamide], for which the 50% inhibitory concentration (IC50) in experiment [3] turned out to be 0.006 µM; in experiment [1], 3 µM; in experiment [2] it was 0.01 µM.
With `C=CC(=O)Nc1cccc(Nc2nc(Nc3ccc(OCCOC)cc3)c3c(c2F)C(C)(C)NC3=O)c1` [Compound G-5, N-(3-(7-fluoro-4-(4-(2-methoxyethoxy)phenylamino)-1,1-dimethyl-3-oxo-2,3-dihydro-1H-pyrrolo[3,4-c]pyridin-6-ylamino)phenyl)acrylamide], inhibition in experiment [2] was half-maximal at 0.156 µM (IC50).
Turning to `C=CC(=O)Nc1cccc(Nc2nc3c(c(Nc4ccccc4)n2)C(=O)NC3)c1` [Compound G-6, N-(3-(5-oxo-4-(phenylamino)-6,7-dihydro-5H-pyrrolo[3,4-d]pyrimidin-2-ylamino)phenyl)acrylamide], the IC50 is 0.02 µM in experiment [3], 3 µM in experiment [1] and 0.014 µM in experiment [2].
Take `C=CC(=O)Nc1cccc(Nc2nc3c(c(Nc4cnn(C5CCOCC5)c4)n2)C(=O)NC3)c1` [Compound G-7, N-(3-(5-oxo-4-(1-(tetrahydro-2H-pyran-4-yl)-1H-pyrazol-4-ylamino)-6,7-dihydro-5H-pyrrolo[3,4d]pyrimidin-2-ylamino)phenyl)acrylamide]: the IC50 in experiment [3] stood at 0.111 µM; in experiment [1], 6.99 µM; in experiment [2] it was 0.019 µM.
On to `C=CC(=O)Nc1cccc(Nc2nc3c(c(Nc4cnn(C)c4)n2)C(=O)NC3)c1` [Compound G-8, N-(3-(4-(1-methyl-1H-pyrazol-4-ylamino)-5-oxo-6,7-dihydro-5H-pyrrolo[3,4-d]pyrimidin-2-ylamino)phenyl)acrylamide], for which the IC50 in experiment [3] turned out to be 0.036 µM; in experiment [1] it was 6.42 µM; in experiment [2] it was 0.009 µM.
Take `C=CC(=O)Nc1cccc(Nc2nc3c(c(Nc4cnn(CC(C)(C)O)c4)n2)C(=O)NC3)c1` [Compound G-9, N-(3-(4-(1-(2-hydroxyl-2-methylpropyl)-1H-pyrazol-4-ylamino)-5-oxo-6,7-dihydro-5H-pyrrolo[3,4-d]pyrimidin-2-ylamino)phenyl)acrylamide]: the IC50 in experiment [3] is 0.082 µM; in experiment [1] it was 5.03 µM; in experiment [2], 0.055 µM.
Regarding `C=CC(=O)Nc1cccc(Nc2cc3c(c(Nc4ccc(OCCOC)cc4)n2)C(=O)NC3)c1` [Compound G-10, N-(3-(4-(4-(2-methoxyethoxy)phenylamino)-3-oxo-2,3-dihydro-1H-pyrrolo[3,4-c]pyridin-6-ylamino)phenyl)acrylamide], the IC50 was 0.164 µM in experiment [3], greater than 10 µM in experiment [1] and 0.068 µM in experiment [2].
On the same counts, the results for `C=CC(=O)Nc1cccc(Nc2nc3c(c(-c4cnn(C)c4)n2)C(=O)NC3)c1` [Compound G-11, N-(3-(4-(1-methyl-1H-pyrazol-4-yl)-5-oxo-6,7-dihydro-5H-pyrrolo[3,4-d]pyrimidin-2-ylamino)phenyl)acrylamide] are 0.004 µM, greater than 10 µM and 0.048 µM.
In the case of `C=CC(=O)Nc1cccc(Nc2nc3c(c(Oc4ccc(OCCOC)cc4)n2)C(=O)NC3)c1` [Compound G-12, N-(3-((4-(4-(2-methoxyethoxy)phenoxyl)-5-oxo-6,7-dihydro-5H-pyrrolo[3,4-d]pyrimidin-2-yl)amino)phenyl)acrylamide], the IC50 in experiment [1] was 1.53 µM. Further, in experiment [2], the IC50 was found to be 1.35 µM and the “inhibitory activity against enzyme (BTK WT), in words” value is listed as “significantly reduced”.
For the molecule `C=CC(=O)Nc1cccc(Nc2nc3c(c(Nc4cnn(C5CC5)c4)n2)C(=O)NC3)c1` [Compound G-13], the IC50 came out at 0.081 µM in experiment [3], 3.08 µM in experiment [1] and 0.063 µM in experiment [2].
With `C=CC(=O)Nc1cccc(Nc2nc3c(c(Nc4cnn(CCOC)c4)n2)C(=O)NC3)c1` [Compound G-14], the IC50 came out at 0.103 µM in experiment [3], 2.69 µM in experiment [1] and 0.059 µM in experiment [2].
In the case of `C=CC(=O)Nc1cccc(Nc2nc3c(c(Nc4ccc(N5CCOCC5)cc4)n2)C(=O)NC3)c1` [Compound G-15], the concentration for half-maximal inhibition (IC50) in experiment [3] amounted to 0.036 µM; in experiment [1], 4.26 µM; in experiment [2] it was 0.052 µM.
For the molecule `C=CC(=O)N(CC)c1cccc(Nc2nc3c(c(Nc4ccc(N5CCN(C6COC6)C[C@@H]5C)cc4)n2)C(=O)NC3)c1` [Compound G-16], the IC50 in experiment [3] was determined as 0.062 µM; in experiment [1], 5.68 µM; in experiment [2] it was 0.044 µM.
As for `C=CC(=O)Nc1cccc(Nc2nc3c(c(N(C)c4ccc(OCCOC)cc4)n2)C(=O)NC3)c1` [Compound G-17], the IC50 in experiment [1] and in experiment [2] was greater than 10 µM each time. In addition, the “inhibitory activity against enzyme (BTK WT), in words” value in experiment [2] was “significantly lowered”.

Values taken from patent publication US11174254B2, “Aniline-substituted 1,2-dihydropyrrol[3,4-C]pyridin/pyrimidin-3-one derivative and use thereof” (SHANGHAI HAIYAN PHARMACEUTICAL TECHNOLOGY CO., LTD., priority 2017, dated 2021).
